Assay results: PubChem BioAssay AID342 (DTP/NCI, 2004)
Several values for one entry are separate records, joined by “and”; a condition that tells them apart may be missing. Identical values can stand only once.

Test system: Swiss mice, Sarcoma 180 sc, mean tumor weight T/C
Test: NCI In Vivo Anticancer Drug Screen. Data for tumor model Sarcoma 180 (subcutaneous) in Swiss mice
Conditions: endpoint: mean tumor weight, higher = larger tumour
Method in brief: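 Readout is the ratio of treated-group measurement to vehicle-control measurement (T/C), based on survival or tumor size in mice carrying transplanted tumors.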

[1] = dose: 15.0 mg/kg/injection, schedule: Q01DX007 (ip), vehicle: carboxymethylcellulose (CMC)
[2] = dose: 5.0 mg/kg/injection, schedule: Q01DX007 (ip), vehicle: carboxymethylcellulose (CMC)

Compound: CC(=O)[C@H]1[C@H](C)C[C@H]2[C@@H]3CCC4=CC(=O)CC[C@]4(C)[C@@]3(F)[C@@H](O)C[C@@]21C
- T/C (dose: 3.0 mg/kg/injection, schedule: Q01DX007 (sc), vehicle: steriod suspending solution): 87 % of control
- T/C (dose: 6.1 mg/kg/injection, schedule: Q01DX007 (sc), vehicle: steriod suspending solution): 63 % of control
- T/C (dose: 12.5 mg/kg/injection, schedule: Q01DX007 (sc), vehicle: steriod suspending solution): 47 % of control
- T/C (dose: 25.0 mg/kg/injection, schedule: Q01DX007 (sc), vehicle: steriod suspending solution): 44 % of control
- T/C (dose: 47.0 mg/kg/injection, schedule: Q01DX007 (sc), vehicle: steriod suspending solution): 13 % of control
- T/C (dose: 94.0 mg/kg/injection, schedule: Q01DX007 (sc), vehicle: steriod suspending solution): 26 % of control
- T/C (dose: 187.5 mg/kg/injection, schedule: Q#A X014 (sc), vehicle: steriod suspending solution): 29 % of control and 31 % of control and 33 % of control
- T/C (dose: 281.25 mg/kg/injection, schedule: Q#A X014 (sc), vehicle: steriod suspending solution): 22 % of control and 28 % of control and 42 % of control
- T/C (dose: 500.0 mg/kg/injection, schedule: Q01DX007 (sc), vehicle: steriod suspending solution): 25 % of control
- T/C (dose: 562.0 mg/kg/injection, schedule: Q01DX007 (sc), vehicle: steriod suspending solution): 36 % of control
- T/C (dose: 600.0 mg/kg/injection, schedule: Q01DX007 (sc), vehicle: steriod suspending solution): 20 % of control
- T/C (dose: 700.0 mg/kg/injection, schedule: Q01DX007 (sc), vehicle: steriod suspending solution): 28 % of control
- T/C (dose: 800.0 mg/kg/injection, schedule: Q01DX007 (sc), vehicle: steriod suspending solution): 16 % of control
- T/C (dose: 843.0 mg/kg/injection, schedule: Q01DX007 (sc), vehicle: steriod suspending solution): 21 % of control
- T/C (dose: 1265.0 mg/kg/injection, schedule: Q01DX007 (sc), vehicle: steriod suspending solution): 29 % of control
- T/C (dose: 1890.0 mg/kg/injection, schedule: Q01DX007 (sc), vehicle: steriod suspending solution): 24 % of control

Compound: Nc1ccc(C(=O)O)c(O)c1
- T/C (dose: 95.87 mg/kg/injection, schedule: Q01DX007 (ip), vehicle: carboxymethylcellulose (CMC)): 108 % of control and 121 % of control
- T/C (dose: 306.8 mg/kg/injection, schedule: Q01DX007 (ip), vehicle: carboxymethylcellulose (CMC)): 44 % of control
- T/C (dose: 511.33 mg/kg/injection, schedule: Q01DX007 (ip), vehicle: carboxymethylcellulose (CMC)): 57 % of control

Compound: CCC(c1ccc(O)cc1)C(CC)c1ccc(OC)cc1 (stereo not given)
- T/C (dose: 2.0 mg/kg/injection, schedule: Q#A X014 (sc), vehicle: steriod suspending solution): 45 % of control and 53 % of control
- T/C (dose: 2.35 mg/kg/injection, schedule: Q#A X014 (ip), vehicle: methylcellulose (MC)): 25 % of control
- T/C (dose: 3.5 mg/kg/injection, schedule: Q#A X014 (ip), vehicle: methylcellulose (MC)): 32 % of control
- T/C (dose: 5.0 mg/kg/injection, schedule: Q#A X014 (ip), vehicle: methylcellulose (MC)): 40 % of control
- T/C (dose: 5.5 mg/kg/injection, schedule: Q#A X014 (sc), vehicle: steriod suspending solution): 39 % of control and 52 % of control
- T/C (dose: 7.5 mg/kg/injection, schedule: Q#A X014 (ip), vehicle: methylcellulose (MC)): 41 % of control
- T/C (dose: 8.5 mg/kg/injection, schedule: Q#A X014 (ip), vehicle: distilled water + alcohol): 15 % of control
- T/C (dose: 12.5 mg/kg/injection, schedule: Q#A X014 (ip), vehicle: distilled water + alcohol): 27 % of control
- T/C (dose: 16.5 mg/kg/injection, schedule: Q#A X014 (sc), vehicle: steriod suspending solution): 35 % of control and 48 % of control
- T/C (dose: 18.5 mg/kg/injection, schedule: Q#A X014 (ip), vehicle: distilled water + alcohol): 12 % of control
- T/C (dose: 27.5 mg/kg/injection, schedule: Q#A X014 (ip), vehicle: distilled water + alcohol): 19 % of control
- T/C (dose: 27.5 mg/kg/injection, schedule: Q#A X014 (ip), vehicle: olive oil, sesame oil, peanut oil): 49 % of control
- T/C (dose: 27.75 mg/kg/injection, schedule: Q#A X014 (ip), vehicle: methylcellulose (MC)): 24 % of control and 46 % of control
- T/C (dose: 41.5 mg/kg/injection, schedule: Q#A X014 (ip), vehicle: olive oil, sesame oil, peanut oil): 48 % of control
- T/C (dose: 41.65 mg/kg/injection, schedule: Q#A X014 (ip), vehicle: methylcellulose (MC)): 20 % of control and 24 % of control
- T/C (dose: 50.0 mg/kg/injection, schedule: Q#A X014 (sc), vehicle: steriod suspending solution): 33 % of control and 36 % of control
- T/C (dose: 62.5 mg/kg/injection, schedule: Q#A X014 (ip), vehicle: methylcellulose (MC)): 20 % of control and 32 % of control
- T/C (dose: 62.5 mg/kg/injection, schedule: Q#A X014 (ip), vehicle: olive oil, sesame oil, peanut oil): 69 % of control
- T/C (dose: 94.0 mg/kg/injection, schedule: Q#A X014 (ip), vehicle: methylcellulose (MC)): 28 % of control and 36 % of control
- T/C (dose: 94.0 mg/kg/injection, schedule: Q#A X014 (ip), vehicle: olive oil, sesame oil, peanut oil): 42 % of control
- T/C (dose: 150.0 mg/kg/injection, schedule: Q#A X014 (sc), vehicle: steriod suspending solution): 29 % of control and 44 % of control

Compound: CN(N=O)C(N)=O
- T/C (dose: 1.4 mg/kg/injection, schedule: Q#A X014 (ip), vehicle: carboxymethylcellulose (CMC)): 45 % of control
- T/C (dose: 1.5 mg/kg/injection, schedule: Q#A X014 (ip), vehicle: carboxymethylcellulose (CMC)): 63 % of control
- T/C (dose: 2.81 mg/kg/injection, schedule: Q#A X014 (ip), vehicle: carboxymethylcellulose (CMC)): 53 % of control
- T/C (dose: 3.0 mg/kg/injection, schedule: Q#A X014 (ip), vehicle: carboxymethylcellulose (CMC)): 73 % of control
- T/C (dose: 5.62 mg/kg/injection, schedule: Q#A X014 (ip), vehicle: carboxymethylcellulose (CMC)): 27 % of control
- T/C (dose: 6.0 mg/kg/injection, schedule: Q#A X014 (ip), vehicle: carboxymethylcellulose (CMC)): 41 % of control
- T/C (dose: 7.5 mg/kg/injection, schedule: Q01DX007 (ip), vehicle: carboxymethylcellulose (CMC)): 67 % of control
- T/C (dose: 9.6 mg/kg/injection, schedule: Q01DX007 (ip), vehicle: carboxymethylcellulose (CMC)): 65 % of control
- T/C (dose: 11.25 mg/kg/injection, schedule: Q01DX007 (ip), vehicle: carboxymethylcellulose (CMC)): 73 % of control
- T/C (dose: 12.0 mg/kg/injection, schedule: Q01DX007 (ip), vehicle: carboxymethylcellulose (CMC)): 49 % of control
- T/C (dose: 12.0 mg/kg/injection, schedule: Q#A X014 (ip), vehicle: carboxymethylcellulose (CMC)): 35 % of control
- T/C [1]: 30 % of control
- T/C (dose: 16.0 mg/kg/injection, schedule: Q01DX007 (ip), vehicle: carboxymethylcellulose (CMC)): 51 % of control
- T/C (dose: 22.5 mg/kg/injection, schedule: Q01DX007 (ip), vehicle: carboxymethylcellulose (CMC)): 14 % of control
- T/C (dose: 24.0 mg/kg/injection, schedule: Q01DX007 (ip), vehicle: carboxymethylcellulose (CMC)): 31 % of control

Compound: CCOC(=O)Nc1ccc2c(c1)/C(=N\NC(N)=S)c1ccccc1-2
- T/C [2]: 86 % of control
- T/C [1]: 44 % of control
- T/C (dose: 30.0 mg/kg/injection, schedule: Q01DX007 (ip), vehicle: carboxymethylcellulose (CMC)): 55 % of control
- T/C (dose: 49.0 mg/kg/injection, schedule: Q01DX007 (ip), vehicle: carboxymethylcellulose (CMC)): 85 % of control
- T/C (dose: 60.0 mg/kg/injection, schedule: Q01DX007 (ip), vehicle: carboxymethylcellulose (CMC)): 63 % of control
- T/C (dose: 73.0 mg/kg/injection, schedule: Q01DX007 (ip), vehicle: carboxymethylcellulose (CMC)): 63 % of control
- T/C (dose: 110.0 mg/kg/injection, schedule: Q01DX007 (ip), vehicle: carboxymethylcellulose (CMC)): 112 % of control

Compound: CN(C)c1ccc(/C=C/c2ccnc3ccccc23)cc1
- T/C (dose: 15.5 mg/kg/injection, schedule: Q01DX007 (ip), vehicle: water): 82 % of control
- T/C (dose: 62.0 mg/kg/injection, schedule: Q01DX007 (ip), vehicle: carboxymethylcellulose (CMC)): 86 % of control

Compound: O=[As]O
- T/C (dose: 1.67 mg/kg/injection, schedule: Q01DX007 (ip), vehicle: carboxymethylcellulose (CMC)): 90 % of control
- T/C (dose: 3.12 mg/kg/injection, schedule: Q#A X014 (ip), vehicle: carboxymethylcellulose (CMC)): 121 % of control
- T/C (dose: 3.33 mg/kg/injection, schedule: Q01DX007 (ip), vehicle: carboxymethylcellulose (CMC)): 78 % of control
- T/C (dose: 3.37 mg/kg/injection, schedule: Q01DX007 (ip), vehicle: carboxymethylcellulose (CMC)): 98 % of control
- T/C [2]: 66 % of control
- T/C (dose: 6.25 mg/kg/injection, schedule: Q#A X014 (ip), vehicle: carboxymethylcellulose (CMC)): 99 % of control
- T/C (dose: 6.65 mg/kg/injection, schedule: Q01DX007 (ip), vehicle: carboxymethylcellulose (CMC)): 85 % of control
- T/C (dose: 7.0 mg/kg/injection, schedule: Q01DX007 (ip), vehicle: carboxymethylcellulose (CMC)): 90 % of control
- T/C (dose: 9.0 mg/kg/injection, schedule: Q01DX007 (ip), vehicle: carboxymethylcellulose (CMC)): 83 % of control
- T/C (dose: 11.0 mg/kg/injection, schedule: Q01DX007 (ip), vehicle: carboxymethylcellulose (CMC)): 64 % of control

Compound: CCCC(=O)OCC1OC(n2cnc3c(=S)nc[nH]c32)C(OC(=O)CCC)C1OC(=O)CCC (stereo not given)
- T/C (dose: 250.0 mg/kg/injection, schedule: Q01DX007 (ip), vehicle: carboxymethylcellulose (CMC)): 36 % of control
